From PubChem BioAssay AID1918958 (Molecular Pharmacology Branch, DTP, NCI, 2023)

Test system: NCI-H196 complex spheroid viability
Assay: Anticancer human tumor NCI-H196 cell line growth inhibition [LSD1];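 note: spheroids exposed to agents for 7 days before readout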;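 for viability, T/C: 100% = DMSO vehicle control viability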
Conditions: for IC50: curve of first compound; for viability, T/C: stronger effect = lower value
Summary of the method: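 Multicellular complex spheroids of tumor cells with human endothelial cells (HUVEC) and mesenchymal stem cells; the LSD1 inhibitor iadademstat was combined with standard-of-care or investigational agents. Top concentration at or near clinical Cmax, half-log dilutions; final DMSO ≤0.25%.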

[1] = second compound 0.1 µM, first compound 0.0316 µM
[2] = second compound 0.1 µM, first compound 0.1 µM
[3] = second compound 0.1 µM, first compound 0.316 µM
[4] = second compound 0.1 µM, first compound 1 µM
[5] = second compound 0.1 µM, first compound 3.16 µM
[6] = second compound 0.1 µM, first compound 10 µM
[7] = second compound 0.316 µM, first compound 0.0316 µM
[8] = second compound 0.316 µM, first compound 0.1 µM
[9] = second compound 0.316 µM, first compound 0.316 µM
[10] = second compound 0.316 µM, first compound 1 µM
[11] = second compound 0.316 µM, first compound 3.16 µM
[12] = second compound 0.316 µM, first compound 10 µM
[13] = second compound 1 µM, first compound 0.0316 µM
[14] = second compound 1 µM, first compound 0.1 µM
[15] = second compound 1 µM, first compound 0.316 µM
[16] = second compound 1 µM, first compound 1 µM
[17] = second compound 1 µM, first compound 3.16 µM
[18] = second compound 1 µM, first compound 10 µM
[19] = second compound 3.16 µM, first compound 0.0316 µM
[20] = second compound 3.16 µM, first compound 0.1 µM
[21] = second compound 3.16 µM, first compound 0.316 µM
[22] = second compound 3.16 µM, first compound 1 µM
[23] = second compound 3.16 µM, first compound 3.16 µM
[24] = second compound 3.16 µM, first compound 10 µM
[25] = second compound 10 µM, first compound 0.0316 µM
[26] = second compound 10 µM, first compound 0.1 µM
[27] = second compound 10 µM, first compound 0.316 µM
[28] = second compound 10 µM, first compound 1 µM
[29] = second compound 10 µM, first compound 3.16 µM
[30] = second compound 10 µM, first compound 10 µM

## CC1COCCN1c1cc(C2(S(C)(=N)=O)CC2)nc(-c2ccnc3[nH]ccc23)n1 (stereo not given) + NC1CCC(NC2CC2c2ccccc2)CC1
Second compound 0.1 µM
  IC50: > 10 µM
Second compound 0.316 µM
  IC50: > 10 µM
Second compound 1 µM
  IC50: > 10 µM
Second compound 3.16 µM
  IC50: > 10 µM
Second compound 10 µM
  IC50: > 10 µM
[1]
  viability, T/C: 95.7%
[2]
  viability, T/C: 100%
[3]
  viability, T/C: 99%
[4]
  viability, T/C: 87.5%
[5]
  viability, T/C: 89%
[6]
  viability, T/C: 67.4%
[7]
  viability, T/C: 101%
[8]
  viability, T/C: 99.5%
[9]
  viability, T/C: 110%
[10]
  viability, T/C: 89.5%
[11]
  viability, T/C: 88.3%
[12]
  viability, T/C: 70.8%
[13]
  viability, T/C: 101%
[14]
  viability, T/C: 96.4%
[15]
  viability, T/C: 95.5%
[16]
  viability, T/C: 85.8%
[17]
  viability, T/C: 79.5%
[18]
  viability, T/C: 72.2%
[19]
  viability, T/C: 97.4%
[20]
  viability, T/C: 100%
[21]
  viability, T/C: 93.7%
[22]
  viability, T/C: 85.5%
[23]
  viability, T/C: 79.5%
[24]
  viability, T/C: 70.2%
[25]
  viability, T/C: 96.9%
[26]
  viability, T/C: 108%
[27]
  viability, T/C: 100%
[28]
  viability, T/C: 98%
[29]
  viability, T/C: 77.3%
[30]
  viability, T/C: 68.2%

## Cn1ncnc1C1c2n[nH]c(=O)c3cc(F)cc(c23)NC1c1ccc(F)cc1 (stereo not given) + NC1CC1c1ccc(-c2cccc(O)c2)cc1
Second compound 0.1 µM
  IC50: > 0.1 µM
Second compound 0.316 µM
  IC50: > 0.1 µM
Second compound 1 µM
  IC50: > 0.1 µM
Second compound 3.16 µM
  IC50: > 0.1 µM
Second compound 10 µM
  IC50: > 0.1 µM
Second compound 0.1 µM, first compound 0.000316 µM
  viability, T/C: 96.6%
Second compound 0.1 µM, first compound 0.001 µM
  viability, T/C: 100%
Second compound 0.1 µM, first compound 0.00316 µM
  viability, T/C: 102%
Second compound 0.1 µM, first compound 0.01 µM
  viability, T/C: 100%
[1]
  viability, T/C: 94.3%
[2]
  viability, T/C: 98.3%
Second compound 0.316 µM, first compound 0.000316 µM
  viability, T/C: 104%
Second compound 0.316 µM, first compound 0.001 µM
  viability, T/C: 106%
Second compound 0.316 µM, first compound 0.00316 µM
  viability, T/C: 98.2%
Second compound 0.316 µM, first compound 0.01 µM
  viability, T/C: 102%
[7]
  viability, T/C: 101%
[8]
  viability, T/C: 106%
Second compound 1 µM, first compound 0.000316 µM
  viability, T/C: 105%
Second compound 1 µM, first compound 0.001 µM
  viability, T/C: 98.9%
Second compound 1 µM, first compound 0.00316 µM
  viability, T/C: 101%
Second compound 1 µM, first compound 0.01 µM
  viability, T/C: 103%
[13]
  viability, T/C: 104%
[14]
  viability, T/C: 106%
Second compound 3.16 µM, first compound 0.000316 µM
  viability, T/C: 92.2%
Second compound 3.16 µM, first compound 0.001 µM
  viability, T/C: 99.1%
Second compound 3.16 µM, first compound 0.00316 µM
  viability, T/C: 102%
Second compound 3.16 µM, first compound 0.01 µM
  viability, T/C: 102%
[19]
  viability, T/C: 99.2%
[20]
  viability, T/C: 92.4%
Second compound 10 µM, first compound 0.000316 µM
  viability, T/C: 99.1%
Second compound 10 µM, first compound 0.001 µM
  viability, T/C: 104%
Second compound 10 µM, first compound 0.00316 µM
  viability, T/C: 95%
Second compound 10 µM, first compound 0.01 µM
  viability, T/C: 104%
[25]
  viability, T/C: 97.7%
[26]
  viability, T/C: 91.4%

## CC1COCCN1c1cc(C2(S(C)(=N)=O)CC2)nc(-c2ccnc3[nH]ccc23)n1 (stereo not given) + NC1CC1c1ccc(-c2cccc(O)c2)cc1
Second compound 0.1 µM
  IC50: > 10 µM
Second compound 0.316 µM
  IC50: > 10 µM
Second compound 1 µM
  IC50: > 10 µM
Second compound 3.16 µM
  IC50: > 10 µM
Second compound 10 µM
  IC50: > 10 µM
[1]
  viability, T/C: 97.7%
[2]
  viability, T/C: 88.3%
[3]
  viability, T/C: 92.2%
[4]
  viability, T/C: 89.1%
[5]
  viability, T/C: 73.9%
[6]
  viability, T/C: 63.6%
[7]
  viability, T/C: 97.3%
[8]
  viability, T/C: 95.8%
[9]
  viability, T/C: 88%
[10]
  viability, T/C: 89.6%
[11]
  viability, T/C: 77.1%
[12]
  viability, T/C: 64.5%
[13]
  viability, T/C: 98.2%
[14]
  viability, T/C: 93.1%
[15]
  viability, T/C: 108%
[16]
  viability, T/C: 89.2%
[17]
  viability, T/C: 67.7%
[18]
  viability, T/C: 62%
[19]
  viability, T/C: 103%
[20]
  viability, T/C: 96.8%
[21]
  viability, T/C: 93.9%
[22]
  viability, T/C: 85.6%
[23]
  viability, T/C: 70.2%
[24]
  viability, T/C: 61.5%
[25]
  viability, T/C: 94.8%
[26]
  viability, T/C: 102%
[27]
  viability, T/C: 93%
[28]
  viability, T/C: 91.6%
[29]
  viability, T/C: 71.3%
[30]
  viability, T/C: 64.3%
